{"source": "patent US6355799B1", "about": "“Substituted benzene compounds, process for their preparation, and herbicidal and defoliant compositions containing them” (ISK Americas Incorporated, priority 1997, dated 2002)", "assay_type_in_all_cases": "in vivo", "key": {"[1]": {"system": "upland rice (Oryza sp., var. Tebonnet, RICE)", "experiment": "Post-emerge test, crop safety", "conditions": "post-emerge, 14 days after application, rating scale 0-100", "method_in_brief": "(§1)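 Each test used a mechanized track sprayer delivering 187 l/ha of acetone solution at 15–1000 g ai/ha. Post-emerge foliage at 2–3 leaves was treated with added 0.25% v/v non-ionic surfactant and bottom-watered only. Injury was assessed on day 14, where 100 means total kill.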"}, "[2]": {"system": "field corn (Zea mays L., var. Dekalb 535, CORN)", "experiment": "Post-emerge test, crop safety", "conditions": "post-emerge, 14 days after application, rating scale 0-100", "method_in_brief": "as §1"}, "[3]": {"system": "upland rice (Oryza sp., var. Tebonnet, RICE)", "experiment": "Pre-emerge test, crop safety", "conditions": "rated 14 days after application, 0 = no damage, 100 = complete death", "method_in_brief": "(§2)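 Applied at 15–1000 g ai/ha from acetone in 187 l/ha spray volume. Post-emergence applications included 0.25% v/v non-ionic surfactant and reached plants sown 8–21 days before. Pre-emergence applications were incorporated by surface watering. Efficacy or crop damage was rated on a 0–100 scale after 14 days.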"}, "[4]": {"system": "field corn (Zea mays L., var. Dekalb 535, CORN)", "experiment": "Pre-emerge test, crop safety", "conditions": "rated 14 days after application, 0 = no damage, 100 = complete death", "method_in_brief": "as §2"}, "[5]": {"system": "large crabgrass (Digitaria sanguinalis, DIGSA)", "experiment": "Post-emerge test, greenhouse herbicide activity screening", "conditions": "post-emerge, 14 days after application, rating scale 0-100", "method_in_brief": "(§3)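 Herbicidal damage is scored 0 (none) to 100 (complete plant death) two weeks after a simulated field spray. Rates span 15–1000 g ai/ha, delivered in acetone at 187 l/ha. For post-emergence treatments, plants have 2–3 leaves and the spray carries 0.25% v/v non-ionic surfactant.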"}, "[6]": {"system": "redroot pigweed (Amaranthus retroflexus, AMARE)", "experiment": "Post-emerge test, greenhouse herbicide activity screening", "conditions": "post-emerge, 14 days after application, rating scale 0-100", "method_in_brief": "as §3"}, "[7]": {"system": "velvetleaf (Abutilon theophrasti, ABUTH)", "experiment": "Post-emerge test, greenhouse herbicide activity screening", "conditions": "post-emerge, 14 days after application, rating scale 0-100", "method_in_brief": "as §3"}, "[8]": {"system": "barnyardgrass (Echinochloa crus-galli, ECHCG)", "experiment": "Post-emerge test, greenhouse herbicide activity screening", "conditions": "post-emerge, 14 days after application, rating scale 0-100", "method_in_brief": "as §3"}, "[9]": {"system": "sicklepod (Cassia obtusifolia, CASOB)", "experiment": "Post-emerge test, greenhouse herbicide activity screening", "conditions": "post-emerge, 14 days after application, rating scale 0-100", "method_in_brief": "as §3"}, "[10]": {"system": "ivyleaf morningglory (Ipomoea hederacea, IPOHE)", "experiment": "Post-emerge test, greenhouse herbicide activity screening", "conditions": "post-emerge, 14 days after application, rating scale 0-100", "method_in_brief": "as §3"}, "[11]": {"system": "johnsongrass (Sorghum halepense, SORHA)", "experiment": "Post-emerge test, greenhouse herbicide activity screening", "conditions": "post-emerge, 14 days after application, rating scale 0-100", "method_in_brief": "as §3"}, "[12]": {"system": "green foxtail (Setaria viridis, SETVI)", "experiment": "Post-emerge test, greenhouse herbicide activity screening", "conditions": "post-emerge, 14 days after application, rating scale 0-100", "method_in_brief": "as §3"}, "[13]": {"system": "lambsquarters (Chenopodium album, CHEAL)", "experiment": "Post-emerge test, greenhouse herbicide activity screening", "conditions": "post-emerge, 14 days after application, rating scale 0-100", "method_in_brief": "as §3"}, "[14]": {"system": "large crabgrass (Digitaria sanguinalis, DIGSA)", "experiment": "Pre-emerge test, greenhouse herbicide activity screening", "conditions": "rated 14 days after application, 0 = no damage, 100 = complete death", "method_in_brief": "(§4)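 Plants grown in 10 cm pots of sandy loam mix received acetone-dissolved compounds through a moving flat-fan nozzle. Doses ranged from 15 to 1000 g ai/ha. Pre-emerge pots were seeded one day earlier, post-emerge pots 8–21 days earlier. Fourteen days on, each pot was graded 0–100 for damage.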"}, "[15]": {"system": "velvetleaf (Abutilon theophrasti, ABUTH)", "experiment": "Pre-emerge test, greenhouse herbicide activity screening", "conditions": "rated 14 days after application, 0 = no damage, 100 = complete death", "method_in_brief": "as §4"}, "[16]": {"system": "barnyardgrass (Echinochloa crus-galli, ECHCG)", "experiment": "Pre-emerge test, greenhouse herbicide activity screening", "conditions": "rated 14 days after application, 0 = no damage, 100 = complete death", "method_in_brief": "as §4"}, "[17]": {"system": "sicklepod (Cassia obtusifolia, CASOB)", "experiment": "Pre-emerge test, greenhouse herbicide activity screening", "conditions": "rated 14 days after application, 0 = no damage, 100 = complete death", "method_in_brief": "as §4"}, "[18]": {"system": "ivyleaf morningglory (Ipomoea hederacea, IPOHE)", "experiment": "Pre-emerge test, greenhouse herbicide activity screening", "conditions": "rated 14 days after application, 0 = no damage, 100 = complete death", "method_in_brief": "as §4"}, "[19]": {"system": "johnsongrass (Sorghum halepense, SORHA)", "experiment": "Pre-emerge test, greenhouse herbicide activity screening", "conditions": "rated 14 days after application, 0 = no damage, 100 = complete death", "method_in_brief": "as §4"}, "[20]": {"system": "green foxtail (Setaria viridis, SETVI)", "experiment": "Pre-emerge test, greenhouse herbicide activity screening", "conditions": "rated 14 days after application, 0 = no damage, 100 = complete death", "method_in_brief": "as §4"}, "[21]": {"system": "lambsquarters (Chenopodium album, CHEAL)", "experiment": "Pre-emerge test, greenhouse herbicide activity screening", "conditions": "rated 14 days after application, 0 = no damage, 100 = complete death", "method_in_brief": "as §4"}, "[22]": {"system": "redroot pigweed (Amaranthus retroflexus, AMARE)", "experiment": "Pre-emerge test, greenhouse herbicide activity screening", "conditions": "rated 14 days after application, 0 = no damage, 100 = complete death", "method_in_brief": "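Rating: 0–100 visual injury, 14 DAA. Application: acetone, 187 l/ha, 15–1000 g ai/ha, flat-fan track sprayer with nozzle 40–45 cm above soil or canopy. Post-emerge runs used 0.25% v/v surfactant on 2–3 leaf plants.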"}}, "data": [{"compound": "Cn1c(C(F)(F)F)cc(=O)n(-c2c(F)cc(Cl)c(OCC#N)c2N(C(=O)c2ccc(F)cc2F)C(=O)c2ccc(F)cc2F)c1=O", "note": "[2-45]", "values": [{"measurement": "phytotoxicity rating RICE", "setting": "[1]; 63 g ai/ha", "result": 0}, {"measurement": "phytotoxicity rating RICE", "setting": "[1]; 250 g ai/ha", "result": 10}, {"measurement": "phytotoxicity rating CORN", "setting": "[2]; 63 g ai/ha", "result": 0}, {"measurement": "phytotoxicity rating CORN", "setting": "[2]; 250 g ai/ha", "result": 5}, {"measurement": "Pre-emerge phytotoxicity rating (0-100), crop damage, RICE", "setting": "[3]; 63 g ai/ha", "result": 0}, {"measurement": "Pre-emerge phytotoxicity rating (0-100), crop damage, RICE", "setting": "[3]; 250 g ai/ha", "result": 0}, {"measurement": "Pre-emerge phytotoxicity rating (0-100), crop damage, CORN", "setting": "[4]; 63 g ai/ha", "result": 0}, {"measurement": "Pre-emerge phytotoxicity rating (0-100), crop damage, CORN", "setting": "[4]; 250 g ai/ha", "result": 0}, {"measurement": "phytotoxicity rating DIGSA", "setting": "[5]; 63 g ai/ha", "result": 0}, {"measurement": "phytotoxicity rating DIGSA", "setting": "[5]; 250 g ai/ha", "result": 0}, {"measurement": "phytotoxicity rating AMARE", "setting": "[6]; 63 g ai/ha", "result": 10}, {"measurement": "phytotoxicity rating AMARE", "setting": "[6]; 250 g ai/ha", "result": 20}, {"measurement": "phytotoxicity rating ABUTH", "setting": "[7]; 63 g ai/ha", "result": 30}, {"measurement": "phytotoxicity rating ABUTH", "setting": "[7]; 250 g ai/ha", "result": 40}, {"measurement": "phytotoxicity rating ECHCG", "setting": "[8]; 63 g ai/ha", "result": 0}, {"measurement": "phytotoxicity rating ECHCG", "setting": "[8]; 250 g ai/ha", "result": 0}, {"measurement": "phytotoxicity rating CASOB", "setting": "[9]; 63 g ai/ha", "result": 0}, {"measurement": "phytotoxicity rating CASOB", "setting": "[9]; 250 g ai/ha", "result": 20}, {"measurement": "phytotoxicity rating IPOHE", "setting": "[10]; 63 g ai/ha", "result": 20}, {"measurement": "phytotoxicity rating IPOHE", "setting": "[10]; 250 g ai/ha", "result": 30}, {"measurement": "phytotoxicity rating SORHA", "setting": "[11]; 63 g ai/ha", "result": 0}, {"measurement": "phytotoxicity rating SORHA", "setting": "[11]; 250 g ai/ha", "result": 0}, {"measurement": "phytotoxicity rating SETVI", "setting": "[12]; 63 g ai/ha", "result": 0}, {"measurement": "phytotoxicity rating SETVI", "setting": "[12]; 250 g ai/ha", "result": 40}, {"measurement": "phytotoxicity rating CHEAL", "setting": "[13]; 63 g ai/ha", "result": 30}, {"measurement": "phytotoxicity rating CHEAL", "setting": "[13]; 250 g ai/ha", "result": 30}, {"measurement": "Pre-emerge Herbicidal Activity, phytotoxicity rating (0-100), DIGSA", "setting": "[14]; 63 g ai/ha", "result": 0}, {"measurement": "Pre-emerge Herbicidal Activity, phytotoxicity rating (0-100), DIGSA", "setting": "[14]; 250 g ai/ha", "result": 0}, {"measurement": "Pre-emerge Herbicidal Activity, phytotoxicity rating (0-100), ABUTH", "setting": "[15]; 63 g ai/ha", "result": 0}, {"measurement": "Pre-emerge Herbicidal Activity, phytotoxicity rating (0-100), ABUTH", "setting": "[15]; 250 g ai/ha", "result": 70}, {"measurement": "Pre-emerge Herbicidal Activity, phytotoxicity rating (0-100), ECHCG", "setting": "[16]; 63 g ai/ha", "result": "00"}, {"measurement": "Pre-emerge Herbicidal Activity, phytotoxicity rating (0-100), ECHCG", "setting": "[16]; 250 g ai/ha", "result": 0}, {"measurement": "Pre-emerge Herbicidal Activity, phytotoxicity rating (0-100), CASOB", "setting": "[17]; 63 g ai/ha", "result": 0}, {"measurement": "Pre-emerge Herbicidal Activity, phytotoxicity rating (0-100), CASOB", "setting": "[17]; 250 g ai/ha", "result": 0}, {"measurement": "Pre-emerge Herbicidal Activity, phytotoxicity rating (0-100), IPOHE", "setting": "[18]; 63 g ai/ha", "result": 0}, {"measurement": "Pre-emerge Herbicidal Activity, phytotoxicity rating (0-100), IPOHE", "setting": "[18]; 250 g ai/ha", "result": 0}, {"measurement": "Pre-emerge Herbicidal Activity, phytotoxicity rating (0-100), SORHA", "setting": "[19]; 63 g ai/ha", "result": 0}, {"measurement": "Pre-emerge Herbicidal Activity, phytotoxicity rating (0-100), SORHA", "setting": "[19]; 250 g ai/ha", "result": 0}, {"measurement": "Pre-emerge Herbicidal Activity, phytotoxicity rating (0-100), SETVI", "setting": "[20]; 63 g ai/ha", "result": 0}, {"measurement": "Pre-emerge Herbicidal Activity, phytotoxicity rating (0-100), SETVI", "setting": "[20]; 250 g ai/ha", "result": 30}, {"measurement": "Pre-emerge Herbicidal Activity, phytotoxicity rating (0-100), CHEAL", "setting": "[21]; 63 g ai/ha", "result": 60}, {"measurement": "Pre-emerge Herbicidal Activity, phytotoxicity rating (0-100), CHEAL", "setting": "[21]; 250 g ai/ha", "result": 90}, {"measurement": "Pre-emerge Herbicidal Activity, phytotoxicity rating (0-100), AMARE", "setting": "[22]; 63 g ai/ha", "result": 70}, {"measurement": "Pre-emerge Herbicidal Activity, phytotoxicity rating (0-100), AMARE", "setting": "[22]; 250 g ai/ha", "result": 100}]}]}
